Reference: patent publication US6703483B1, “Compounds useful in pain management” (Cornell Research Foundation, Inc., priority 1999, dated 2004)

Key:
[1] = Respiratory depression studies (whole body plethysmography) after i.th. administration; conditions: rat; for decrease of minute ventilation: during 3 to 6 hours after administration
Protocol: Whole body plethysmography was performed as described in the literature (K. Tatsumi et al., J. Appl. Physiol. 71, 37-42 (1991)). An unrestrained rat was placed in a 3-liter whole-body plethysmograph chamber and breathed 100% humidified air supplied into and out of the chamber at a rate of 1000 ml/min. After a 15-min acclimation period the inlet and outlet of the chamber were closed and the pressure changes in the box, caused by the warming and wetting of the gas inspired by the rat and the cooling and drying of the expired gas, were recorded using a high-gain differential pressure transducer. A calibration volume of 0.2 ml of air was regularly introduced into the chamber during the recordings. The recordings were made for 20-30 seconds. Subsequently, the inlet and outlet were opened, and the gas supply was changed to a mixture of 5% CO2 and 21% O2 in N2 (100% humidified) and the rat was allowed to breathe the gas mixture for 5 min to reach a steady-state ventilatory condition. The recordings of changes in pressure were repeated with the chamber closed. Tidal volumes were calculated from the pressure changes using the equation derived by J. E. Drorbaugh and W. O. Fenn, Pediatrics 16, 81-87 (1955). Respiratory frequencies were also determined from the number of respiratory cycles in the recordings and minute ventilations were calculated (tidal volume x frequency).
Compounds were administered at a low dose (3×ED50 determined in the analgesic test) and at a high dose (30×ED50).

[2] = In vivo disposition in pregnant sheep (fetal plasma, placental transfer); conditions: i.v. infusion to pregnant sheep
Protocol: The in vivo disposition after i.v. administration to pregnant sheep was examined by using procedures described in the literature (H. H. Szeto et al. J. Pharmacol. Exp. Ther. 284. 61-65 (1998)). Chronic indwelling catheters were surgically placed in four pregnant ewes (gestional age, 115-120 days; term ˜145 days) as described by H. H. Szeto et al., Am. J. Physiol. 258, R1453-R1458 (1990). […] The compounds according to the invention were administered as a constant-rate intravenous infusion (0.6 mg/kg/h and 0.06 mg/kg/h, respectively, for 4 h) to the sheep, and blood samples were collected at 0, 1, 2, 3, 3.5, 4, 4.25, 4.5, 5, 6, 7, 12 and 24 h. Blood samples were collected form the fetus at 0, 3, 3.5, 4, 5 and 6 h. All blood samples were collected into chilled borosilicate glass tubes containing EDTA and centrifuged, and the plasma was stored in glass containers with Teflon-lined caps and frozen at −80° C.
The compounds were quantified by using reversed-phase HPLC and MS detection, as described by Grigoriants et al., J. Chromatogr. B, Biomedical Applications 695, 287-298 (1997). […] The filtered plasma sample was chromatographed on an RP-analytical column (Delta Pak, 5 μm, C18, 100 Å, 150×3.9 mm; Waters, Milford, Mass.) at a flow rate of 1.5 ml/min, and UV absorption was monitored at 200 nm. […] Continuous flow-LSIMS was used to quantify DALDA. […]

[3] = Hemodynamic and metabolic effects in the pregnant sheep model; type: in vivo; conditions: i.v. infusion 0.6 mg/kg/h and 0.06 mg/kg/h, respectively
Protocol: Using the same instrumented pregnant sheep model described above, DALDA and its analogs were administered by i.v. infusion at a dose of 0.6 mg/kg/h and 0.06 mg/kg/h, respectively. No effect on maternal blood pressure, heart rate, blood gases and plasma glucose were observed. Similarly, neither peptide had any effect on fetal blood pressure, heart rate, blood gases and plasma glucose.

[4] = 2 h after i.th. administration, dose 7.5 μg (32×ED50); cited from earlier work
μ receptor = molecular target: T1, μ receptor (Rattus norvegicus, UniProt P33535); conditions: rat brain membranes; cited from earlier work
T1 construct: from tissue; host or cells: rat brain (cerebellum removed) membranes

μ receptors = conditions: GPI; cited from earlier work

T1 sequence (P33535 whole entry): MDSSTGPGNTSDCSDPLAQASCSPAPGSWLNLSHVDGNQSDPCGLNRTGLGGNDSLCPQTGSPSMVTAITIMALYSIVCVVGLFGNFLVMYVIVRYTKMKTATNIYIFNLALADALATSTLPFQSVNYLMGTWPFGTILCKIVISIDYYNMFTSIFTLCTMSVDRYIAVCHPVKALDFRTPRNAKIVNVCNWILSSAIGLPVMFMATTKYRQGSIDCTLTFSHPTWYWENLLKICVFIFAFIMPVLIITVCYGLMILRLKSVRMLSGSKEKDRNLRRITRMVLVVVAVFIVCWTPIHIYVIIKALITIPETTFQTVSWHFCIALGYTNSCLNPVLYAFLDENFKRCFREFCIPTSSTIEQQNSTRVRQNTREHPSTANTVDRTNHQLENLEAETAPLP

| Compound | decrease of minute ventilation compared to saline control ([1]; low dose (3×ED50) and high dose (30×ED50)) | decrease of minute ventilation ([1]; high dose (30×ED50)) [%] | decrease of minute ventilation ([1]; low dose (3×ED50)) [%] | crossing of the placental barrier [2] | effect on maternal blood pressure, heart rate, blood gases and plasma glucose [3] | delayed respiratory depression [4] | μ receptor affinity (μ receptor) | μ receptor selectivity (μ receptor) | μ agonist potency (μ receptors) |
| --- | --- | --- | --- | --- | --- | --- | --- | --- | --- |
| Cc1cc(O)cc(C)c1C[C@H](N)C(=O)N[C@H](CCCNC(=N)N)C(=O)N[C@@H](Cc1ccccc1)C(=O)N[C@@H](CCCCN)C(N)=O [Example 1, H-Dmt-D-Arg-Phe-Lys-NH2] | Neither dose of H-Dmt-D-Arg-Phe-Lys-NH2 significantly decreased minute ventilation | – | – | – | – | – | – | – | – |
| CN1CC[C@]23c4c5ccc(O)c4O[C@H]2[C@@H](O)C=C[C@H]3[C@H]1C5 [morphine] | – | 26 | – | – | – | – | – | – | – |
| NCCCC[C@H](NC(=O)[C@H](Cc1ccccc1)NC(=O)[C@@H](CCCN=C(N)N)NC(=O)[C@@H](N)Cc1ccc(O)cc1)C(N)=O [DALDA, H-Tyr-D-Arg-Phe-Lys-NH2] | – | 30 | 26 | do not cross the placental barrier to a significant extent | No effect | did produce delayed respiratory depression | high μ receptor affinity | excellent μ receptor selectivity | considerable μ agonist potency |
